Test results from patent US6417212B1, “Modulators of peroxisome proliferator activated receptors” (Eli Lilly & Company, priority 1999, dated 2002).

How the values were obtained:
[1] = target: T1, huPPARα (Homo sapiens, UniProt Q07869); experiment: DNA-dependent binding (ABCD binding), SPA, huPPARα; conditions: displacement of tritium-labeled PPARα agonist radioligand
T1 sequence (Q07869 1-468): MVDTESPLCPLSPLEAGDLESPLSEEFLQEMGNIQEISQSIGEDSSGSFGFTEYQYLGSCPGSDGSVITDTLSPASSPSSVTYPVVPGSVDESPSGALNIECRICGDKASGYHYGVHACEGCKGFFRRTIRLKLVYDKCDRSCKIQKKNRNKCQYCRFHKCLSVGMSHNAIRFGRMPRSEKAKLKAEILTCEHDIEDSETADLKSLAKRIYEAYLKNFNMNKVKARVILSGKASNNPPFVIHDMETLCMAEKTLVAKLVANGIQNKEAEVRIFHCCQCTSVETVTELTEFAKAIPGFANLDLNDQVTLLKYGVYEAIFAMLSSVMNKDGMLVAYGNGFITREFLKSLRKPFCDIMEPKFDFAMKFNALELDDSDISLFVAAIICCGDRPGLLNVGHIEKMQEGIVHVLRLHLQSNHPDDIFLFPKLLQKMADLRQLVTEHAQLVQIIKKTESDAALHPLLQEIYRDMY
T1 sequence (P19793 1-462 partner): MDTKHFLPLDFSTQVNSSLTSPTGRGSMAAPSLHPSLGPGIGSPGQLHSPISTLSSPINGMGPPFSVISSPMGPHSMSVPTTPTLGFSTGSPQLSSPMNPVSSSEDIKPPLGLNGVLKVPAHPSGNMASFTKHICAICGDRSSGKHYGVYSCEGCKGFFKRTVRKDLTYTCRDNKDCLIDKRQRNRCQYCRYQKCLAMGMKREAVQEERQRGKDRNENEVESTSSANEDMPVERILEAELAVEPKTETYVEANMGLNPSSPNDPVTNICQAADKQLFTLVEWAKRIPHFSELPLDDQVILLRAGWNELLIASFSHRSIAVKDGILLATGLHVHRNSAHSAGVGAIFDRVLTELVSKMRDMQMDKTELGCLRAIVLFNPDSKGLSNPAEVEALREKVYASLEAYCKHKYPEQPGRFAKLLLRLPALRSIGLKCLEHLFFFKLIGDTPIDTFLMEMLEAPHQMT
Procedure: DNA-dependent binding (ABCD binding) was carried out using SPA technology with PPAR receptors. Tritium-labeled PPARγ and PPARα agonists were used as radioligands for generating displacement curves and IC50 values with compounds of the invention. Cotransfection assays were carried out in CV-1 cells. The reporter plasmid contained an acylCoA oxidase (AOX) PPRE and TK promoter upstream of the luciferase reporter cDNA. Appropriate PPARs and RXRα were constitutively expressed using plasmids containing the CMV promoter. […] In order to eliminate such interference, a GAL4 chimeric system was used in which the DNA binding domain of the transfected PPAR was replaced by that of GAL4, and the GAL4 response element was utilized in place of the AOX PPRE. Cotransfection efficacy was determined relative to PPARα agonist and […] reference molecules. Efficacies were determined by computer fit to a concentration-response curve, or in some cases at a single high concentration of agonist (10 μM). For binding or cotransfection studies with receptors other than PPARs, similar assays were carried out using appropriate ligands, receptors, reporter constructs, etc., for that particular receptor.
(§1) These studies were carried out to evaluate the ability of compounds of the invention to bind to and/or activate various nuclear transcription factors, particularly huPPARα (“hu” indicates “human”) and huPPARγ. These studies provide in vitro data concerning efficacy and selectivity of compounds of the invention. Furthermore, binding and cotransfection data for compounds of the invention were compared with corresponding data for marketed compounds that act on either huPPARα or huPPARγ.

[2] = test system: huPPARα; experiment: Cotransfection assay in CV-1 cells, huPPARα (GAL4 chimeric system); type: cell-based, human; conditions: luciferase reporter, relative to PPARα agonist reference molecule
Procedure: DNA-dependent binding (ABCD binding) was carried out using SPA technology with PPAR receptors. Tritium-labeled PPARγ and PPARα agonists were used as radioligands for generating displacement curves and IC50 values with compounds of the invention. Cotransfection assays were carried out in CV-1 cells. The reporter plasmid contained an acylCoA oxidase (AOX) PPRE and TK promoter upstream of the luciferase reporter cDNA. Appropriate PPARs and RXRα were constitutively expressed using plasmids containing the CMV promoter. For PPARα and PPARβ, interference by endogenous PPARγ in CV-1 cells was an issue. In order to eliminate such interference, a GAL4 chimeric system was used in which the DNA binding domain of the transfected PPAR was replaced by that of GAL4, and the GAL4 response element was utilized in place of the AOX PPRE. Cotransfection efficacy was determined relative to PPARα agonist and […] reference molecules. Efficacies were determined by computer fit to a concentration-response curve, or in some cases at a single high concentration of agonist (10 μM). For binding or cotransfection studies with receptors other than PPARs, similar assays were carried out using appropriate ligands, receptors, reporter constructs, etc., for that particular receptor.
as §1

[3] = test system: db/db mice; experiment: Evaluation of glucose levels in db/db mice; type: in vivo; conditions: Mus musculus, 168 h; 30 mg/kg daily oral gavage for 7 days; 100% = glucose not different from lean values; read-out: Glucose Normalisation
Procedure: After an acclimation period of 2 weeks, animals were individually identified by ear notches, weighed, and bled via the tail vein for determination of initial glucose levels. Blood was collected (100 μl) from unfasted animals by wrapping each mouse in a towel, cutting the tip of the tail with a scalpel, and milking blood from the tail into a heparinized capillary tube (Fisher) balanced on the edge of the bench. Sample was discharged into a heparinized microtainer with gel separator (VWR) and retained on ice. Plasma was obtained after centrifugation at 4° C. and glucose measured immediately. Remaining plasma was frozen until the completion of the experiment, when glucose and triglycerides were assayed in all samples. Animals were grouped based on initial glucose levels and body weights. Beginning the following morning, mice were dosed daily by oral gavage for 7 days using a 20 gauge, 1½″ curved disposable feeding needle. […] On day 7, mice were weighed and bled (tail vein) 3 hours after dosing. Twenty-four hours after the 7th dose (i.e., day 8), animals were bled again (tail vein). Samples obtained from conscious animals on days 0, 7 and 8 were assayed for glucose. After the 24 hour bleed, animals were weighed and dosed for the final time. Three hours after dosing on day 8, animals were anesthetized by inhalation of isoflurane and blood obtained via cardiac puncture (0.5-0.7 ml). Whole blood was transferred to serum separator tubes, chilled on ice and permitted to clot. Serum was obtained after centrifugation at 4° C. and frozen until analysis for compound levels. After sacrifice by cervical dislocation, the liver, heart and epididymal fat pads were excised and weighed.
The absorbance of the dye produced is linearly related to the analyte in the sample. The assays were further modified in our laboratory for use in a 96 well format. […] An additional aliquot of sample, pipetted to a third well and diluted in 200 μl water, provided a blank for each specimen. […] Sample absorbances were compared to a standard curve (100-800, 10-500, and 100-400 mg/dl for glucose, triglycerides and total cholesterol, respectively). […] All samples from an experiment were assayed at the same time to minimize inter-assay variability.

SMILES | IC50 [1] [nM] | huPPARα CTF Efficacy [2] [%] | inhibition in vivo at 30 mg/kg [3] [%]
Cc1oc(-c2ccc(-c3c(F)cccc3F)cc2)nc1CCOc1ccc(OC(C)(C)C(=O)O)cc1 [Example 14, 2-(4-{2-[2-(2′,6′-Difluorobiphenyl-4-yl)-5-methyloxazol-4-yl]-ethoxy}-phenoxy)-2-methylpropionic acid] | 155 | 90 | 134
Cc1oc(-c2ccc(-c3ccccc3)cc2)nc1CCOc1cccc(OC(C)(C)C(=O)O)c1 [Example 21, 2-{3-[2-(2-Biphenyl-4-yl-5-methyloxazol-4-yl)ethoxy]phenoxy}-2-methylpropionic acid] | 97 | 92 | 95
Cc1sc(-c2cccc(-c3ccccc3)c2)nc1CCOc1ccc(OC(C)(C)C(=O)O)cc1 [Example 46, 2-{4-[2-(2-Biphenyl-3-yl-5-methyl-thiazol-4-yl)-ethoxy]-phenoxy}-2-methyl-propionic acid] | 447 | 122 | 29
